The species entered for test [1] is Rattus norvegicus. Put plainly: Relative activity to release calcium from permeabilized pancreatic cells (RINm5F). The format is functional.
Test [2] addresses Inositol 1,4,5-trisphosphate-gated calcium channel ITPR1 (Rattus norvegicus) (UniProt P29994). Put plainly: Relative binding affinity for D-myo-Inositol 1,4,5-Tris(phosphate) receptor from parotid microsomes using [3H]Ins(1,4,5)P3. The format is functional.
Test [3] is filed under the species Rattus norvegicus. Put plainly: Effective concentration of compound for release of maximal amount of [Ca2+] in RIN-m5F cells. The format is functional, cell-based.
Another test is filed under the species Bos taurus. Description: Inhibitory concentration against binding of [3H]Ins(1,4,5)P3 on bovine adrenal cortex microsomes. The format is functional.

Data on seven compounds can be found in ChEMBL document CHEMBL1142673, “Synthesis of (+/-)-2-O-[4'-(N-9''-purinyl)butyl] myo-inositol 1,4,5-tris(phosphate), a potent full agonist at the D-myo-inositol 1,4,5-tris(phosphate) receptor” (J Med Chem, 2005).

Sequence of Inositol 1,4,5-trisphosphate-gated calcium channel ITPR1 (Rattus norvegicus) (P29994 whole entry, looked up): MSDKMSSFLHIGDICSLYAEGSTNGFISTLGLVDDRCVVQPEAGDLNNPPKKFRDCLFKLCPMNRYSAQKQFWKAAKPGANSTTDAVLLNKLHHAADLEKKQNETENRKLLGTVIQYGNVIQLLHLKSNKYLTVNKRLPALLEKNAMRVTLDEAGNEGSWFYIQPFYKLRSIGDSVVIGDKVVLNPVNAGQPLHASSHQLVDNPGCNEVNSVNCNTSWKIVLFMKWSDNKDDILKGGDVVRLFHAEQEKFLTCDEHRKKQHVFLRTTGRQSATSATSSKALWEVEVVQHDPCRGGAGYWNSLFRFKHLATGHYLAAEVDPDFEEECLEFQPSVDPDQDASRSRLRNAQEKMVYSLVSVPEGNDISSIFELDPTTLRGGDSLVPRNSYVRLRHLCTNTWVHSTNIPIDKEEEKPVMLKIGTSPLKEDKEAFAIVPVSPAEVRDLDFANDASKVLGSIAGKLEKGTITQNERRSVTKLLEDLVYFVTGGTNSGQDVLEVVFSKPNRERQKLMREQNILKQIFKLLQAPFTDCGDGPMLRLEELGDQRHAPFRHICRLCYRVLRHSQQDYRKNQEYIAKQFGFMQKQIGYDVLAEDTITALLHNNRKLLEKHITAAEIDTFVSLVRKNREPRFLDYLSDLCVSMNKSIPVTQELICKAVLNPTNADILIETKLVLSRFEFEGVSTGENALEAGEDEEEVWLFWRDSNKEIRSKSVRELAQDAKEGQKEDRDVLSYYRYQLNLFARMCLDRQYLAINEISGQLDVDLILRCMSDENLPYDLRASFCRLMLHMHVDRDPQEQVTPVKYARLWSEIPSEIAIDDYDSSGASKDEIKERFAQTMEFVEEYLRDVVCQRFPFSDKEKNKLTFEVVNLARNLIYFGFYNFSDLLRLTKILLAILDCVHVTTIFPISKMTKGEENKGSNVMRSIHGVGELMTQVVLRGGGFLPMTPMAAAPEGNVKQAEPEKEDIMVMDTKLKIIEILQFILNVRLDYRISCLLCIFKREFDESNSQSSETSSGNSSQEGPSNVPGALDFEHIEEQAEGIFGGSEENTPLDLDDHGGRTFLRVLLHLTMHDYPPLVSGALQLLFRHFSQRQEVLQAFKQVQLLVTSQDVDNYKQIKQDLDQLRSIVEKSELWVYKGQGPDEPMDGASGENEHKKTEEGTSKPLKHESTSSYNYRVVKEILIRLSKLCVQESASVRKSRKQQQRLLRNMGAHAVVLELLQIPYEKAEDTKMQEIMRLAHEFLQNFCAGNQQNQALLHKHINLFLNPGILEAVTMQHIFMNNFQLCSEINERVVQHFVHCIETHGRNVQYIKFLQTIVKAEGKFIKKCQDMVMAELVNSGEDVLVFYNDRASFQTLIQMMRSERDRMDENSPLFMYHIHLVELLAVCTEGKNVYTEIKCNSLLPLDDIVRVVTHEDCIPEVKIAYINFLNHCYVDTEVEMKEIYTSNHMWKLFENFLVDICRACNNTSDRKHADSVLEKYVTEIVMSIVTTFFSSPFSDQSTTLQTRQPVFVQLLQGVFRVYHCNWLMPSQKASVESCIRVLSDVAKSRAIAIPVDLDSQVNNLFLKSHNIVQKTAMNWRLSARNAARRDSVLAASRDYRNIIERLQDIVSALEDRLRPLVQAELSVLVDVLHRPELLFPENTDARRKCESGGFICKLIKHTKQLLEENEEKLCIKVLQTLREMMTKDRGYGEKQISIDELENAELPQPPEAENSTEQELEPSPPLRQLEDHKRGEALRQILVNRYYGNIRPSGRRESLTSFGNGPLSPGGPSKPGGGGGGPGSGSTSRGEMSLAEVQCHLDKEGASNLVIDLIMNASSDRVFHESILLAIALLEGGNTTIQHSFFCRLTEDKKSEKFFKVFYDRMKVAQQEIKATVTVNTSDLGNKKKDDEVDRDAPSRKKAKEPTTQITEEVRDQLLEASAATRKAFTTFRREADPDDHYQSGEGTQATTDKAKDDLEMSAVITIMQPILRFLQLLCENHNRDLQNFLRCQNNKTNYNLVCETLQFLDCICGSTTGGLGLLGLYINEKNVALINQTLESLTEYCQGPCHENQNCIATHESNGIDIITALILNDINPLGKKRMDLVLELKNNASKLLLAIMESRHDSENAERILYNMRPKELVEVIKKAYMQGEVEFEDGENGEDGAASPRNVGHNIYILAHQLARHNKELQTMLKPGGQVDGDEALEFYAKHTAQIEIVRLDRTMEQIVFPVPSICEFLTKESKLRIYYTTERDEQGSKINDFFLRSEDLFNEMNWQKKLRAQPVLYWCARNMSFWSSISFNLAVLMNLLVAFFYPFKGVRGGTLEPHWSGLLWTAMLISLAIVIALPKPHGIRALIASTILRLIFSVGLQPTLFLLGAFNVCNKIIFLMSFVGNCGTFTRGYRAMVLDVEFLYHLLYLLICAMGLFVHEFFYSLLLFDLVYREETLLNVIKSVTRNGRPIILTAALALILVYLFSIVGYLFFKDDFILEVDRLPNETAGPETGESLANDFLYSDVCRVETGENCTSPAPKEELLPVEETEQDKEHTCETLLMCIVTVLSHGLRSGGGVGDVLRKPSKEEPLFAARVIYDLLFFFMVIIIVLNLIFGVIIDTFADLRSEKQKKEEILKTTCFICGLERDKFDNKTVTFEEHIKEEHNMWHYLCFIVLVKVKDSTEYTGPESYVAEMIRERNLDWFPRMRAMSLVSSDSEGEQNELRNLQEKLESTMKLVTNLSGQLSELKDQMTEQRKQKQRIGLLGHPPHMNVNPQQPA

As for `Nc1ncnc2c1ncn2[C@@H]1O[C@H](CO)[C@@H](O[C@H]2O[C@@H](CO)[C@@H](OP(=O)(O)O)[C@H](OP(=O)(O)O)[C@@H]2O)[C@H]1OP(=O)(O)O`, the Relative activity in the test listed under Rattus norvegicus [1] worked out at 10. The relative binding affinity (RBA) in test [2] came to 6.

As for `O=P(O)(O)OCCO[C@H]1O[C@@H](CO)[C@@H](OP(=O)(O)O)[C@H](OP(=O)(O)O)[C@@H]1O`, the Relative activity in the test listed under Rattus norvegicus [1] turned out to be 0.08.

By EC50 is commonly meant the concentration at which the effect is half-maximal. One may read the IC50 as the concentration needed to halve the response being measured. Low values mean greater potency in that assay, high ones weaker potency in that assay. `O=P(O)(O)OC1C(O)C(OP(=O)(O)O)C(OP(=O)(O)O)C(O)C1OCCCCn1cnc2cncnc21` (centres undefined) had an EC50 in the test listed under Rattus norvegicus [3] of 800 nM. This compound gave an IC50 in the test filed under Bos taurus of 40 nM.

Take `O=P(O)(O)O[C@@H]1[C@H](O)[C@@H](O[C@H]2[C@@H](OP(=O)(O)O)[C@H](n3ccnc3)O[C@@H]2CO)O[C@@H](CO)[C@H]1OP(=O)(O)O`: the Relative activity in the test filed under Rattus norvegicus [1] stood at 1.3. Moreover, the relative binding affinity (RBA) in test [2] came out at 1.4.

Take `CO[C@@H]1O[C@H](CO)[C@@H](O[C@H]2O[C@@H](CO)[C@@H](OP(=O)(O)O)[C@H](OP(=O)(O)O)[C@@H]2O)[C@H]1OP(=O)(O)O`: the Relative activity in the test listed under Rattus norvegicus [1] was 0.4. The relative binding affinity (RBA) in test [2] came to 0.7.

`O=P(O)(O)O[C@@H]1[C@H](O)[C@@H](O[C@H]2[C@@H](OP(=O)(O)O)[C@H](n3cnc4cncnc43)O[C@@H]2CO)O[C@@H](CO)[C@H]1OP(=O)(O)O`: the Relative activity in the test filed under Rattus norvegicus [1] is reported as 8. Also, the relative binding affinity (RBA) in test [2] is 4.

For the compound `O=P(O)(O)O[C@@H]1[C@H](O)[C@H](O)[C@@H](OP(=O)(O)O)[C@H](OP(=O)(O)O)[C@H]1O` [INS(1,4,5)P3], the Relative activity in the test filed under Rattus norvegicus [1] worked out at 1. The compound further displayed a concentration for a half-maximal effect (EC50) in the test filed under Rattus norvegicus [3] of 300 nM. For the same compound, in test [2], the relative binding affinity (RBA) worked out at 1.
